Measured values as given in ChEMBL document CHEMBL3797167, “Development of a peptide-based inducer of nuclear receptors degradation” (Bioorg Med Chem Lett, 2016).
Calls of active or inactive are those of the source. No cut-off for these calls is given here.

Key:
[1] = target: T1, Estrogen receptor (Homo sapiens) (UniProt P03372); experiment: Induction of ERalpha degradation in human MCF7 cells at 0.3 to 3 uM after 6 hrs by Western blot analysis; assay type: cell-based
T1 sequence (whole entry): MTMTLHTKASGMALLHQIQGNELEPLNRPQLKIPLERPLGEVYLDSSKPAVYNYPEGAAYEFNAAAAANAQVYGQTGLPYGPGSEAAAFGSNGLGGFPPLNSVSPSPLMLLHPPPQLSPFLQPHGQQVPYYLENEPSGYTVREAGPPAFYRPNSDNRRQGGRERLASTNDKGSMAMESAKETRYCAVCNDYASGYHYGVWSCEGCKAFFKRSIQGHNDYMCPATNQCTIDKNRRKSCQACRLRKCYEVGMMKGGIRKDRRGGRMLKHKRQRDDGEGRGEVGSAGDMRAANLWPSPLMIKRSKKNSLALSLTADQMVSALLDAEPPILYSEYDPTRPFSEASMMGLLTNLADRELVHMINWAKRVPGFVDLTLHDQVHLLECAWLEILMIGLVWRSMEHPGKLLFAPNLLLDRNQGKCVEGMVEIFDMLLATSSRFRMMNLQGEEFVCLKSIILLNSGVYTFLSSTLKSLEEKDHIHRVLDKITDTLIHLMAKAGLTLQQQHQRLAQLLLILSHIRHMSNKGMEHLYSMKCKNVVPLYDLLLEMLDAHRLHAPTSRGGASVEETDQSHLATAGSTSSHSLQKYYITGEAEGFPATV

[2] = target: T1, Estrogen receptor (Homo sapiens); experiment: Induction of ERalpha degradation in human MCF7 cells assessed as ERalpha/actin ratio level at 1 uM after 6 hrs by Western blot analysis (reference value: 100%); assay type: cell-based
[3] = target: T1, Estrogen receptor (Homo sapiens); experiment: Induction of ERalpha degradation in human MCF7 cells assessed as ERalpha/actin ratio level at 0.3 uM after 6 hrs by Western blot analysis (reference value: 100%); assay type: cell-based
[4] = target: T1, Estrogen receptor (Homo sapiens); experiment: Induction of ERalpha degradation in human MCF7 cells assessed as ERalpha/actin ratio level at 3 uM after 6 hrs by Western blot analysis (reference value: 100%); assay type: cell-based
[5] = target: T1, Estrogen receptor (Homo sapiens); experiment: Induction of ERalpha degradation in human MCF7 cells at 3 to 10 uM after 6 hrs by Western blot analysis; assay type: cell-based
[6] = target: T1, Estrogen receptor (Homo sapiens); experiment: Induction of ERalpha degradation in human MCF7 cells assessed as ERalpha/actin ratio level at 10 uM after 6 hrs by Western blot analysis (reference value: 100%); assay type: cell-based
MCF7 [7] = experiment: Cytotoxicity against human MCF7 cells at 10 uM after 6 hrs; assay type: cell-based; settings: mcf7, 6 h
[8] = target: T1, Estrogen receptor (Homo sapiens); experiment: Induction of ERalpha degradation in human MCF7 cells assessed as ERalpha/actin ratio level at 5 uM after 6 hrs by Western blot analysis (reference value: 100%); assay type: cell-based
[9] = target: T1, Estrogen receptor (Homo sapiens); experiment: Induction of ERalpha degradation in human MCF7 cells assessed as ERalpha/actin ratio level at 0.1 uM after 6 hrs by Western blot analysis (reference value: 100%); assay type: cell-based
[10] = target: Baculoviral IAP repeat-containing protein 2 (Homo sapiens) (UniProt Q13490); experiment: Induction of cIAP1 degradation in human MCF7 cells at 1 uM after 6 hrs by Western blot analysis; assay type: cell-based
Baculoviral IAP repeat-containing protein 2 (Homo sapiens), sequence (Q13490 whole entry): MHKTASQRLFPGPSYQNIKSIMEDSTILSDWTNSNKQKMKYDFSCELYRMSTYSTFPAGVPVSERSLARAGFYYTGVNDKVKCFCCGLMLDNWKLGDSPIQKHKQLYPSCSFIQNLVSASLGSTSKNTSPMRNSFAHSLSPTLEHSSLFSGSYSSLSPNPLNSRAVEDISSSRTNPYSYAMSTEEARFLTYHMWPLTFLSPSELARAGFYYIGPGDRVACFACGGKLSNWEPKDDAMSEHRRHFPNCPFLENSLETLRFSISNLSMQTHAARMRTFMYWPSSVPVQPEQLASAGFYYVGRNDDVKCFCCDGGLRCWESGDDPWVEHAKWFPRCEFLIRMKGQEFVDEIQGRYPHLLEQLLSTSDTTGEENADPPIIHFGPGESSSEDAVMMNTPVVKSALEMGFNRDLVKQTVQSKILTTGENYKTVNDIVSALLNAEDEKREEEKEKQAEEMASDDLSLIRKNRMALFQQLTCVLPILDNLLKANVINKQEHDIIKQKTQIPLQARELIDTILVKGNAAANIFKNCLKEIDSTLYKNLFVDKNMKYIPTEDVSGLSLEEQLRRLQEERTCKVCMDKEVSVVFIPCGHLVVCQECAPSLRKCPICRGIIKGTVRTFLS

[11] = target: T1, Estrogen receptor (Homo sapiens); experiment: Induction of ERalpha degradation in human MCF7 cells at 0.1 to 1 uM after 6 hrs by Western blot analysis; assay type: cell-based
[12] = target: Aryl hydrocarbon receptor (Homo sapiens) (UniProt P35869); experiment: Induction of AhR degradation in human MCF7 cells assessed as AhR/actin ratio level at 3 uM after 6 hrs by Western blot analysis (reference value: 100%)
[13] = target: T2, Androgen receptor (Homo sapiens) (UniProt P10275); experiment: Induction of AR degradation in human MCF7 cells assessed as AR/actin ratio level at 6 uM after 6 hrs by Western blot analysis (reference value: 100%); assay type: cell-based
T2 sequence (whole entry): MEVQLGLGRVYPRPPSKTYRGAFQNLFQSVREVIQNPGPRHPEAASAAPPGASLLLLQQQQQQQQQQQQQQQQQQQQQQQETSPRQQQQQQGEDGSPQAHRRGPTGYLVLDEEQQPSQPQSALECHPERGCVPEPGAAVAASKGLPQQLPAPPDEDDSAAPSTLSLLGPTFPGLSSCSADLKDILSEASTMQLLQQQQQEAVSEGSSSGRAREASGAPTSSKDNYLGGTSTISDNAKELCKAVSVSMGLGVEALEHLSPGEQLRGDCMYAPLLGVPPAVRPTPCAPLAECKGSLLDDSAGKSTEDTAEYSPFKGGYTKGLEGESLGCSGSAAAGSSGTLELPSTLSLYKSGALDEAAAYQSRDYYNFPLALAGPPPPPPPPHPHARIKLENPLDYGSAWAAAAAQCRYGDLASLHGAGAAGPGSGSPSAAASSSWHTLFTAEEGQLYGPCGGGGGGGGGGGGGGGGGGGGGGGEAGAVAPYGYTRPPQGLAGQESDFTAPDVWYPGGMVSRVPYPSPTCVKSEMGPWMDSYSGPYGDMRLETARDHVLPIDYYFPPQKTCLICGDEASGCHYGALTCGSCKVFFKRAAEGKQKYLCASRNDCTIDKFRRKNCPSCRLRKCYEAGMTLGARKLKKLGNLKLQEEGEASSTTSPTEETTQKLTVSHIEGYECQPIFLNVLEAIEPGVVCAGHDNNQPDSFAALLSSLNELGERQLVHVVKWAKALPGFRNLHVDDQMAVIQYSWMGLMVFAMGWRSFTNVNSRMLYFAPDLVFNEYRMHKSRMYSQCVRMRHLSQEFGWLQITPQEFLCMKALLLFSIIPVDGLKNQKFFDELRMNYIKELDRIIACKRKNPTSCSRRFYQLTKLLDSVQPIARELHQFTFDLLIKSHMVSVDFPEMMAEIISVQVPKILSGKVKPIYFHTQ

[14] = target: T2, Androgen receptor (Homo sapiens); experiment: Induction of AR degradation in human MCF7 cells at 3 to 6 uM after 6 hrs by Western blot analysis; assay type: cell-based
[15] = target: T1, Estrogen receptor (Homo sapiens); experiment: Induction of ERalpha degradation in human MCF7 cells assessed as ERalpha/actin ratio level at 6 uM after 6 hrs by Western blot analysis (reference value: 100%); assay type: cell-based
[16] = target: Aryl hydrocarbon receptor (Homo sapiens) (UniProt P35869); experiment: Induction of AhR degradation in human MCF7 cells assessed as AhR/actin ratio level at 4.5 uM after 6 hrs by Western blot analysis (reference value: 100%)
[17] = target: Aryl hydrocarbon receptor (Homo sapiens) (UniProt P35869); experiment: Induction of AhR degradation in human MCF7 cells assessed as AhR/actin ratio level at 6 uM after 6 hrs by Western blot analysis (reference value: 100%)
MCF7 [18] = experiment: Cytotoxicity against human MCF7 cells at >6 uM after 6 hrs; assay type: cell-based; settings: mcf7, 6 h
[19] = target: T2, Androgen receptor (Homo sapiens); experiment: Induction of AR degradation in human MCF7 cells assessed as AR/actin ratio level at 4.5 uM after 6 hrs by Western blot analysis (reference value: 100%); assay type: cell-based
[20] = target: T1, Estrogen receptor (Homo sapiens); experiment: Induction of ERalpha degradation in human MCF7 cells after 6 hrs by Western blot analysis; assay type: cell-based
[21] = target: T2, Androgen receptor (Homo sapiens); experiment: Induction of AR degradation in human MCF7 cells assessed as AR/actin ratio level at 3 uM after 6 hrs by Western blot analysis (reference value: 100%); assay type: cell-based
[22] = target: T1, Estrogen receptor (Homo sapiens); experiment: Induction of ERalpha degradation in human MCF7 cells assessed as ERalpha/actin ratio level at 4.5 uM after 6 hrs by Western blot analysis (reference value: 100%); assay type: cell-based
[23] = target: T3, Aryl hydrocarbon receptor (Homo sapiens, UniProt P35869); experiment: Induction of AhR degradation in human MCF7 cells at 3 to 6 uM after 6 hrs by Western blot analysis; assay type: cell-based; settings: mcf7, 6 h
T3 sequence (P35869 whole entry): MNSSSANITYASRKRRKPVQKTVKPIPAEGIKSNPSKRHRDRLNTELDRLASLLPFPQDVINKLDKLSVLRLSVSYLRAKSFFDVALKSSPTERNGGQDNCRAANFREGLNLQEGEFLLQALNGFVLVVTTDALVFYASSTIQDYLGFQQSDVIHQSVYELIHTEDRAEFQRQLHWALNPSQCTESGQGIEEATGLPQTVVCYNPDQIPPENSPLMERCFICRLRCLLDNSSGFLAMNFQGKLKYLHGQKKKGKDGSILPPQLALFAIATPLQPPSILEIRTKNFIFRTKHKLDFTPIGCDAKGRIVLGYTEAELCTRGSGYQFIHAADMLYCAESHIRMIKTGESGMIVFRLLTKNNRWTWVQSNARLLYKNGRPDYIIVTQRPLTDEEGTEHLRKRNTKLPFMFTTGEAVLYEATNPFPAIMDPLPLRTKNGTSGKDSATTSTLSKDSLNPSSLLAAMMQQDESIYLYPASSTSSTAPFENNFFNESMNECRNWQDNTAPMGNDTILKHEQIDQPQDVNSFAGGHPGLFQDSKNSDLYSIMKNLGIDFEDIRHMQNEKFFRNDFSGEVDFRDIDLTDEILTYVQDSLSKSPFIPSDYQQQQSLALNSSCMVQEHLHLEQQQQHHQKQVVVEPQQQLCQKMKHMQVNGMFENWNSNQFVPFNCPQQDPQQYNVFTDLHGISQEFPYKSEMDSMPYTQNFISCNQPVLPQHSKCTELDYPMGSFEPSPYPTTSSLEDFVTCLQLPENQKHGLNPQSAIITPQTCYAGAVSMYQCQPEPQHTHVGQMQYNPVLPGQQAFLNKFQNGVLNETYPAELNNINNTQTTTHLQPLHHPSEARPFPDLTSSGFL

[24] = target: Baculoviral IAP repeat-containing protein 2 (Homo sapiens) (UniProt Q13490); experiment: Induction of cIAP1 degradation in human MCF7 cells after 6 hrs by Western blot analysis; assay type: cell-based
[25] = target: T2, Androgen receptor (Homo sapiens); experiment: Induction of AR degradation in human MCF7 cells at 3 to 6 uM after 6 hrs by Western blot in presence of MG132; assay type: cell-based

CC[C@H](C)[C@H]1NC(=O)[C@@H](NC(=O)[C@@H](N)CCCCNC(=O)[C@@H](NC(=O)[C@@H]2CCCN2C(=O)[C@H](NC(=O)[C@H](C)NC)C2CCCCC2)C(c2ccccc2)c2ccccc2)CSSC[C@H](C(=O)N[C@H](CCCNC(=N)N)C(=O)N[C@H](CC(C)(C)C)C(=O)N[C@H](CC(C)C)C(=O)N[C@H](CCC(N)=O)C(=O)NCC(=O)NCC(=O)NCC(=O)N[C@H](CCCNC(=N)N)C(=O)N[C@H](CCCNC(=N)N)C(=O)N[C@H](CCCNC(=N)N)C(=O)N[C@H](CCCNC(=N)N)C(=O)N[C@H](CCCNC(=N)N)C(=O)N[C@H](CCCNC(=N)N)C(=O)N[C@@H](CCCNC(=N)N)C(N)=O)NC(=O)[C@@H](CC(C)C)NC1=O
Activity [1]: inactive | Activity [2]: 114% | Activity [3]: 109% | Activity [4]: 95%

CC[C@H](C)[C@H]1NC(=O)[C@@H](NC(=O)[C@H](CCCNC(=N)N)NC(=O)COCCOCCNC(=O)[C@@H](NC(=O)[C@@H]2CCCN2C(=O)[C@H](NC(=O)[C@H](C)NC)C2CCCCC2)C(c2ccccc2)c2ccccc2)CSSC[C@H](C(=O)N[C@H](CCCNC(=N)N)C(=O)N[C@H](CC(C)(C)C)C(=O)N[C@H](CC(C)C)C(=O)N[C@H](CCC(N)=O)C(=O)NCC(=O)NCC(=O)NCC(=O)N[C@H](CCCNC(=N)N)C(=O)N[C@H](CCCNC(=N)N)C(=O)N[C@H](CCCNC(=N)N)C(=O)N[C@H](CCCNC(=N)N)C(=O)N[C@H](CCCNC(=N)N)C(=O)N[C@H](CCCNC(=N)N)C(=O)N[C@@H](CCCNC(=N)N)C(N)=O)NC(=O)[C@@H](CC(C)C)NC1=O
Activity [5]: inactive | Activity [6]: 236% | Activity (MCF7 [7]): Toxic | Activity [8]: 99% | Activity [4]: 96%

CC[C@H](C)[C@H]1NC(=O)[C@@H](NC(=O)[C@H](N)CCCCNC(=O)COCCOCCNC(=O)[C@@H](NC(=O)[C@@H]2CCCN2C(=O)[C@H](NC(=O)[C@H](C)NC)C2CCCCC2)C(c2ccccc2)c2ccccc2)CSSC[C@H](C(=O)N[C@H](CCCNC(=N)N)C(=O)N[C@H](CC(C)(C)C)C(=O)N[C@H](CC(C)C)C(=O)N[C@H](CCC(N)=O)C(=O)NCC(=O)NCC(=O)NCC(=O)N[C@H](CCCNC(=N)N)C(=O)N[C@H](CCCNC(=N)N)C(=O)N[C@H](CCCNC(=N)N)C(=O)N[C@H](CCCNC(=N)N)C(=O)N[C@H](CCCNC(=N)N)C(=O)N[C@H](CCCNC(=N)N)C(=O)N[C@@H](CCCNC(=N)N)C(N)=O)NC(=O)[C@@H](CC(C)C)NC1=O
Activity [9]: 105% | Activity [2]: 92% | Activity [3]: 100% | Activity [10]: Active | Activity [11]: inactive

CC[C@H](C)[C@H]1NC(=O)[C@@H](NC(=O)[C@@H](N)CCCCNC(=O)COCCOCCNC(=O)COCCOCCNC(=O)[C@@H](NC(=O)[C@@H]2CCCN2C(=O)[C@H](NC(=O)[C@H](C)NC)C2CCCCC2)C(c2ccccc2)c2ccccc2)CSSC[C@H](C(=O)N[C@H](CCCNC(=N)N)C(=O)N[C@H](CC(C)(C)C)C(=O)N[C@H](CC(C)C)C(=O)N[C@H](CCC(N)=O)C(=O)NCC(=O)NCC(=O)NCC(=O)N[C@H](CCCNC(=N)N)C(=O)N[C@H](CCCNC(=N)N)C(=O)N[C@H](CCCNC(=N)N)C(=O)N[C@H](CCCNC(=N)N)C(=O)N[C@H](CCCNC(=N)N)C(=O)N[C@H](CCCNC(=N)N)C(=O)N[C@@H](CCCNC(=N)N)C(N)=O)NC(=O)[C@@H](CC(C)C)NC1=O
Activity [12]: 173% | Activity [13]: 57% | Activity [14]: Active | Activity [15]: 77% | Activity [16]: 178% | Activity [17]: 137% | Activity (MCF7 [18]): Toxic | Activity [19]: 72% | Activity [20]: Dose-dependent effect | Activity [21]: 77% | Activity [22]: 87% | Activity [23]: Not Active | Activity [4]: 87% | Activity [24]: Dose-dependent effect | Activity [25]: inactive
